Calls of active or inactive are those of the source. No cut-off for these calls is given here.
Tests used:
Pseudomonas aeruginosa = experiment: Antimicrobial activity against Pseudomonas aeruginosa ATCC 27853 assessed as inhibition of microbial growth at <= 200 ug/ml incubated for 18 hrs by micro-broth dilution method; format: functional, organism-based; settings: dose <= 200.0 µg/ml
Staphylococcus aureus [1] = experiment: Antibacterial activity against Methicillin-resistant Staphylococcus aureus infected in C57BL/6 mouse assessed as reduction in IL-6 level in serum at 10 mg/kg,ip administrated 5 hrs after bacterial infection measured after 24 hrs by ELISA; format: functional, organism-based; settings: time 19.0 hrs
[2] = tested on: Peritoneal macrophage cell; experiment: Induction of chemotaxis in mouse Peritoneal macrophage assessed as upregulation of CXCL2 production at 100 ug/ml preincubated with WRW4 followed by compound addition by ELISA; format: functional, cell-based; settings: dose 100.0 µg/ml
Peritoneal macrophage [3] = experiment: Induction of chemotaxis in mouse Peritoneal macrophage assessed as upregulation of IL-6 expression at 25 to 100 ug/ml incubated for 6 hrs by ELISA; format: functional, cell-based; settings: dose 25-100 µg/ml
Staphylococcus aureus [4] = experiment: Antibacterial activity against Staphylococcus aureus ATCC 25923 infected in C57BL/6 mouse assessed as increase in survival rate at 10 mg/kg,ip administrated 5 hrs after bacterial infection measured after 7 days; format: functional, organism-based; settings: time 7.0 day
Mus musculus [5] = experiment: Anticoagulation activity in mouse infected with Methicillin-resistant Staphylococcus aureus assessed as increase in plasma AT-III expression at 10 mg/kg,ip administrated 5 hrs after bacterial infection measured after 24 hrs by ELISA; format: functional, organism-based; settings: time 19.0 hrs
Escherichia coli [6] = experiment: Antibacterial activity against Escherichia coli ATCC 25922 infected in C57BL/6 mouse assessed as reduction in bacterial load at 10 mg/kg,ip administrated 5 hrs after bacterial infection; format: functional, organism-based
[7] = tested on: Peritoneal macrophage cell; experiment: Induction of chemotaxis in mouse Peritoneal macrophage assessed as upregulation of IL-1beta expression at 25 to 100 ug/ml incubated for 6 hrs by ELISA; format: functional, cell-based; settings: dose 25-100 µg/ml
Escherichia coli [8] = experiment: Antibacterial activity against Escherichia coli ATCC 25922 infected in C57BL/6 mouse assessed as reduction in IL-6 level in serum at 10 mg/kg,ip administrated 5 hrs after bacterial infection measured after 24 hrs by ELISA; format: functional, organism-based; settings: time 19.0 hrs
Staphylococcus aureus [9] = experiment: Antibacterial activity against Methicillin-resistant Staphylococcus aureus infected in C57BL/6 mouse with clodronate liposome-induced monocyte depletion model assessed as reduction of bacterial burden in peritoneal cavity at 10 mg/kg,ip pre-administrated 5 hrs before bacterial infection measured after 24 hrs; format: functional, organism-based; settings: time 29.0 hrs
Peritoneal macrophage [10] = experiment: Immunoregulatory activity in mouse Peritoneal macrophage assessed as upregulation of IkappaBalpha phosphorylation incubated for 1 hr by Western blotting analysis; format: functional, cell-based
Staphylococcus aureus [11] = experiment: Antibacterial activity against Methicillin-resistant Staphylococcus aureus infected in C57BL/6 mouse assessed as reduction in TNF-alpha level in serum at 10 mg/kg,ip administrated 5 hrs after bacterial infection measured after 24 hrs by ELISA; format: functional, organism-based; settings: time 19.0 hrs
Staphylococcus aureus [12] = experiment: Antibacterial activity against Staphylococcus aureus ATCC 25923 infected in C57BL/6 mouse assessed as reduction in IL-1beta level in peritoneal fluid at 10 mg/kg,ip pre-administrated 5 hrs before bacterial infection measured after 24 hrs by ELISA; format: functional, organism-based; settings: time 29.0 hrs
Escherichia coli [13] = experiment: Antibacterial activity against Escherichia coli ATCC 25922 infected in C57BL/6 mouse assessed as reduction in IL-6 level in serum at 10 mg/kg,ip pre-administrated 5 hrs before bacterial infection measured after 24 hrs by ELISA; format: functional, organism-based; settings: time 29.0 hrs
Peritoneal macrophage [14] = experiment: Induction of chemotaxis in mouse Peritoneal macrophage assessed as upregulation of CXCL1 production at 100 ug/ml preincubated with WRW4 followed by compound addition by ELISA; format: functional, cell-based; settings: dose 100.0 µg/ml
Escherichia coli [15] = experiment: Antibacterial activity against Carbapenem-resistant Escherichia coli infected in C57BL/6 mouse assessed as increase in survival rate at 10 mg/kg,ip pre-administrated 5 hrs before bacterial infection measured after 7 days; format: functional, organism-based; settings: time 7.0 day
Mus musculus [16] = experiment: Immunomodulatory activity in clodronate liposome immunosuppressed C57BL/6 mouse with monocyte depletion model assessed as increase in number of monocyte in peritoneal lavage at 10 mg/kg,ip administration measured after 24 hrs by flow cytometry; format: functional, organism-based
[17] = tested on: Peritoneal macrophage cell; experiment: Induction of chemotaxis in mouse Peritoneal macrophage assessed as upregulation of CXCL2 production at 100 ug/ml preincubated with KN-62 followed by compound addition by ELISA; format: functional, cell-based; settings: dose 100.0 µg/ml
Mus musculus [18] = experiment: Anticoagulation activity in mouse infected with Carbapenem-resistant Escherichia coli assessed as increase in plasma TFPI expression at 10 mg/kg,ip pre-administrated 5 hrs before bacterial infection measured after 24 hrs by ELISA; format: functional, organism-based; settings: time 29.0 hrs
Mus musculus [19] = experiment: Immunomodulatory activity in cyclophosphamide immunosuppressed C57BL/6 mouse with neutrophil depletion model assessed as increase in number of neutrophil in peritoneal lavage at 10 mg/kg,ip administration measured after 5 hrs by flow cytometry; format: functional, organism-based
Bacillus subtilis = experiment: Antimicrobial activity against Bacillus subtilis ATCC6633 assessed as inhibition of microbial growth at <= 200 ug/ml incubated for 18 hrs by micro-broth dilution method; format: functional, organism-based; settings: dose <= 200.0 µg/ml
Staphylococcus aureus [20] = experiment: Antibacterial activity against Staphylococcus aureus ATCC 25923 infected in C57BL/6 mouse assessed as reduction in IL-6 level in peritoneal fluid at 10 mg/kg,ip pre-administrated 5 hrs before bacterial infection measured after 24 hrs by ELISA; format: functional, organism-based; settings: time 29.0 hrs
Mus musculus [21] = experiment: Inhibition of fibrin formation in mouse infected with Methicillin-resistant Staphylococcus aureus assessed as reduction in fibrin deposition in lung at 10 mg/kg,ip administrated 5 hrs after bacterial infection measured after 24 hrs by immunohistochemical analysis; format: functional, organism-based; settings: time 19.0 hrs
Escherichia coli [22] = experiment: Antibacterial activity against Escherichia coli ATCC 25922 infected in C57BL/6 mouse assessed as reduction in TNF-alpha level in serum at 10 mg/kg,ip administrated 5 hrs after bacterial infection measured after 24 hrs by ELISA; format: functional, organism-based; settings: time 19.0 hrs
Staphylococcus aureus [23] = experiment: Antibacterial activity against Methicillin-resistant Staphylococcus aureus infected in C57BL/6 mouse assessed as reduction in IL-6 level in serum at 10 mg/kg,ip pre-administrated 5 hrs before bacterial infection measured after 24 hrs by ELISA; format: functional, organism-based; settings: time 29.0 hrs
Escherichia coli [24] = experiment: Antibacterial activity against Escherichia coli ATCC 25922 infected in C57BL/6 mouse assessed as increase in survival rate at 10 mg/kg,ip pre-administrated 5 hrs before bacterial infection measured after 7 days; format: functional, organism-based; settings: time 7.0 day
Neutrophil = experiment: Induction of chemotaxis in mouse bone marrow derived neutrophil assessed as increase in neutrophil migration at 100 ug/ml preincubated with KN62 for 30 mins followed by compound addition measured after 8 hrs by crystal violet staining based indirect transwell assay; format: functional, cell-based; settings: dose 100.0 µg/ml
Staphylococcus aureus [25] = experiment: Antimicrobial activity against Methicillin-resistant Staphylococcus aureus assessed as reduction in metabolic activity at < 200 ug/ml incubated for 1 to 4 hrs by CCK-8 assay; format: functional, organism-based; settings: dose < 200.0 µg/ml, time 1-4 hrs
Peritoneal macrophage [26] = experiment: Immunoregulatory activity in mouse Peritoneal macrophage assessed as upregulation of ERK phosphorylation incubated for 1 hr by Western blotting analysis; format: functional, cell-based
Staphylococcus aureus [27] = experiment: Antibacterial activity against Methicillin-resistant Staphylococcus aureus infected in C57BL/6 mouse with cyclophosphamide-induced neutrophil depletion model assessed as reduction of bacterial burden in peritoneal cavity at 10 mg/kg,ip pre-administrated 5 hrs before bacterial infection measured after 24 hrs; format: functional, organism-based; settings: time 29.0 hrs

With `CC[C@H](C)[C@H](NC(=O)[C@@H]1CSSC[C@H](NC(=O)[C@H](CCC(=O)O)NC(=O)[C@@H](NC(=O)[C@H](CCCCN)NC(=O)[C@H](Cc2c[nH]cn2)NC(=O)[C@@H](NC(=O)[C@H](CCCCN)NC(=O)[C@H](CCC(=O)O)NC(=O)[C@H](C)NC(=O)[C@H](CCC(=O)O)NC(=O)[C@H](CCC(=O)O)NC(=O)[C@H](CCC(=O)O)NC(=O)[C@H](C)N)[C@@H](C)O)[C@@H](C)O)C(=O)N[C@@H](CC(C)C)C(=O)N[C@@H](CCC(=O)O)C(=O)N1)C(=O)N[C@@H](Cc1ccccc1)C(=O)N[C@H](C(=O)N[C@@H](CC(C)C)C(=O)N[C@@H](CC(C)C)C(=O)N1CCC[C@H]1C(=O)N1CCC[C@@H]1C(=O)N[C@H](C)C(=O)O)[C@@H](C)O` the Activity (Pseudomonas aeruginosa) was “inactive”, the Activity (Staphylococcus aureus [1]) was “Active” and the Activity [2] was “Active”. For the same compound, the Activity (Peritoneal macrophage [3]) was “inactive”, the Activity (Staphylococcus aureus [4]) was “Active” and the Activity (Mus musculus [5]) was “Active”. The Activity (Escherichia coli [6]) was “Active”, the Activity [7] was “inactive” and the Activity (Escherichia coli [8]) was “Active”. The Activity (Staphylococcus aureus [9]) was “inactive”, the Activity (Peritoneal macrophage [10]) was “Dose-Dependent Effect” and the Activity (Staphylococcus aureus [11]) was “Active”. For the same compound, the Activity (Staphylococcus aureus [12]) was “Active”, the Activity (Escherichia coli [13]) was “Active” and the Activity (Peritoneal macrophage [14]) was “Active”. For the same compound, the Activity (Escherichia coli [15]) was “Active”, the Activity (Mus musculus [16]) was “inactive” and the Activity [17] was “Active”. The Activity (Mus musculus [18]) was “Active”, the Activity (Mus musculus [19]) was “Active” and the Activity (Bacillus subtilis) was “inactive”. For the same compound, the Activity (Staphylococcus aureus [20]) was “Active”, the inhibition (Mus musculus [21]) was “Active” and the Activity (Escherichia coli [22]) was “Active”. The Activity (Staphylococcus aureus [23]) was “Active”, the Activity (Escherichia coli [24]) was “Active” and the Activity (Neutrophil) was “Active”. The Activity (Staphylococcus aureus [25]) was “inactive”, the Activity (Peritoneal macrophage [26]) was “Dose-Dependent Effect” and the Activity (Staphylococcus aureus [27]) was “inactive”.

From ChEMBL document CHEMBL5543174, “A Nonbactericidal Anionic Antimicrobial Peptide Provides Prophylactic and Therapeutic Efficacies against Bacterial Infections in Mice by Immunomodulatory-Antithrombotic Duality” (J Med Chem, 2024)
